Measurements reported in patent US12357603B2, “Acyl sulfonamides for treating cancer” (Bayer Aktiengesellschaft, priority 2019, dated 2025).
Read-outs that look alike come from different tables or passages of the source.

Legend:
[1] = target: Recombinant human His-tagged Kat6a protein (amino acids 194-810) (Homo sapiens (Human), UniProt Q92794); assay: Kat6a activity assay (TR-FRET, acetylation of biotinylated Histone-H4-derived peptide); format: biochemical; settings: 60 mins at 22° C., read-out: KAT6A-DPF/HAT domain IC50 [mol/l] (arithmetic mean)
Recombinant human His-tagged Kat6a protein (amino acids 194-810), sequence (Q92794 194-810): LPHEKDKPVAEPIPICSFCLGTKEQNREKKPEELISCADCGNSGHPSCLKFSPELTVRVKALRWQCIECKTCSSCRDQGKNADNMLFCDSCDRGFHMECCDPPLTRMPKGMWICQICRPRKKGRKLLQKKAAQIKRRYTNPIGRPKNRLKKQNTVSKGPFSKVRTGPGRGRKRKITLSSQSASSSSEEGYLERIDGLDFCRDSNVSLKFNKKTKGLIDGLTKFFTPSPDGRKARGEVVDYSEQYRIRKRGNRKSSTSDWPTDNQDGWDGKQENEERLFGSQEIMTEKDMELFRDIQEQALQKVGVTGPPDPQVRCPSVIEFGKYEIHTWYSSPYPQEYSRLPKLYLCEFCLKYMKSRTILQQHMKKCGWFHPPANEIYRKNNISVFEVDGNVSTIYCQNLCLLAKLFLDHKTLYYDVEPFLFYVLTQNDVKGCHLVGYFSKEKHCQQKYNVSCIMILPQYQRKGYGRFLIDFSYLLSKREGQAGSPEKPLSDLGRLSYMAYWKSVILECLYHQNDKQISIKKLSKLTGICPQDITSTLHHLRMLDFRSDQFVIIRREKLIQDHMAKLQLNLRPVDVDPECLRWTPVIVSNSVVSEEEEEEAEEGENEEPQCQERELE
Outline: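 Sf9-expressed human His-Kat6a (aa 194-810) incubated 60 min at 22 °C with compounds (0.01-20 μM) in Tris pH 8 buffer containing 220 nM biotinylated H4 peptide (aa 1-24) and 600 nM acetyl-CoA. Acetyl-K8 detected by TR-FRET (665/620 nm ratio); IC50 by four-parameter fit versus DMSO controls.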

[2] = target: Recombinant human GST-tagged Kat6b protein (431-end); assay: Kat6b activity assay (TR-FRET, acetylation of biotinylated Histone-H4-derived peptide); format: biochemical; settings: 30 mins at 22° C., read-out: KAT6B activity assay IC50 [mol/l] (arithmetic mean)
Procedure: Kat6b inhibitory activities of the compounds described in the present invention were quantified using a Fluorescence Resonance Energy Transfer (TR-FRET) assay which measures acetylation of a synthetic, biotinylated Histone-H4-derived peptide by the enzyme.
In this case 50 nl DMSO were used instead of compounds. […] IC50 values were determined by regression analysis based on a 4 parameter equation (minimum, maximum, ICM, Hill; Y=Max+(Min−Max)/(1+(X/ICso) Hill) using the Screener Software (Genedata).

[3] = tested on: ESR1 transcription (luciferase signal in MVLN cells); assay: Repression of ESR1 transcription, luciferase reporter in MVLN cells; format: cell-based; settings: inhibition of luciferase signal in MVLN cells, arithmetic mean
Outline: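 MVLN cells (constitutive ER, stably carrying a Vitellogenin A2 hormone-responsive element–luciferase reporter) treated in duplicate; luciferase read after 24 h. Cell density checked by Alamar Blue fluorescence (530/590 nm) after 2 h to exclude cell-loss effects.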

ZR-75-1 cells = assay: Proliferation assay ZR-75-1 (Alamar Blue, 144 h); format: cell-based; settings: arithmetic mean, read-out: ZR75-1 proliferation assay, EC50 [M] (arithmetic mean)
Outline: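 Cells seeded at 3000/well in RPMI 1640 with 2.5% FBS and treated 24 h later across 2.0×10E-5 to 2.0×10E-9 M (9 dilutions, 0.2% DMSO, triplicate). After 144 h at 37 °C, 5% CO2, viability read by Alamar Blue fluorescence at 590 nm following 2 h reagent incubation.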

MDA-MB-436 cells = assay: Proliferation assay MDA-MB-436, negative control cell line (Alamar Blue, 144 h); format: cell-based; settings: arithmetic mean
Outline: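 MDA-MB-436 cells (3000/well, DMEM/Ham's F12 with 2.5% FBS) treated 24 h after plating with compounds at 2.0×10E-5 to 2.0×10E-9 M (9 dilutions, 0.2% DMSO), triplicates, 144 h at 37 °C, 5% CO2. Viability by Alamar Blue, 2 h, fluorescence at 590 nm.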

[4] = Homo sapiens, MDA-MB-436, 144 h

Row | Compound | IC50 [1] | IC50 [2] | IC50 ([3]; Homo sapiens, MVLN) | EC50 (ZR-75-1 cells; Homo sapiens, ZR-75-1, 144 h) | EC50 (MDA-MB-436 cells; [4]) | IC50 [3] | EC50 (ZR-75-1 cells) | EC50 (MDA-MB-436 cells)
1 | CCOc1ccccc1S(=O)(=O)NC(=O)c1cc2ccc(N(C)c3ccccc3)cc2o1 [Example 6, N-(2-Ethoxyphenyl)sulfonyl-6-(N-methylanilino)benzofuran-2-carboxamide] | 1830 nM | 4280 nM | > 20000 nM | > 2e-05 M | > 20000 nM |  |  | 
2 | CN(c1ccccc1)c1ccc2cc(C(=O)NS(=O)(=O)c3ccccc3)oc2c1 [Example 7] | 9600 nM | > 20000 nM | > 20000 nM | > 2e-05 M | > 20000 nM |  |  | 
3 | CN(c1ccccc1)c1ccc2cc(C(=O)NS(=O)(=O)c3ccccc3Cl)oc2c1 [Example 8, N-(2-Chlorophenyl)sulfonyl-6-(N-methylanilino)benzofuran-2-carboxamide] | 5030 nM | 4400 nM | > 20000 nM | > 2e-05 M | > 20000 nM |  |  | 
4 | CNc1ccc2cc(C(=O)NS(=O)(=O)c3ccccc3-c3ccccc3)oc2c1 [Example 11, 6-(Methylamino)-N-(2-phenylphenyl)sulfonyl-benzofuran-2-carboxamide] | 123 nM | 205 nM | 1930 nM | 2.84e-07 M | > 20000 nM |  |  | 
5 | CCOc1ccccc1S(=O)(=O)NC(=O)c1cc2c(F)cc(N(C)C)cc2o1 [Example 13, 6-(Dimethylamino)-N-(2-ethoxybenzene-1-sulfonyl)-4-fluoro-1-benzofuran-2-carboxamide] | 12.5 nM | 11.6 nM | 16.7 nM | 2.28e-08 M | > 20000 nM |  |  | 
6 | CN(C)c1ccc2cc(C(=O)NS(=O)(=O)c3ccccc3-c3cccc(Cl)c3)oc2c1 [Example 16, N-(3′-Chloro[1,1′-biphenyl]-2-sulfonyl)-6-(dimethylamino)-1-benzofuran-2-carboxamide] | 66.3 nM | 50.5 nM | 126 nM | 1.55e-07 M | > 20000 nM |  |  | 
7 | Cc1ccccc1-c1ccccc1S(=O)(=O)NC(=O)c1cc2ccc(N(C)C)cc2o1 [Example 17, 6-(Dimethylamino)-N-(2′-methyl[1,1′-biphenyl]-2-sulfonyl)-1-benzofuran-2-carboxamide] | 72.4 nM | 64.5 nM | 148 nM | 3.87e-08 M | > 20000 nM |  |  | 
8 | CN(C)c1ccc2cc(C(=O)N[S@SP1](=O)(=O)c3cccc4ccccc34)oc2c1 [Example 20, 6-(Dimethylamino)-N-(naphthalene-1-sulfonyl)-1-benzofuran-2-carboxamide] | 104 nM | 88.4 nM | 343 nM | 2.5e-07 M | > 20000 nM |  |  | 
9 | Cc1ccc2cccc(S(=O)(=O)NC(=O)c3cc4ccc(N(C)C)cc4o3)c2n1 [Example 21, 6-(Dimethylamino)-N-(2-methylquinoline-8-sulfonyl)-1-benzofuran-2-carboxamide] | 23.4 nM | 26.7 nM |  |  |  | 48.5 nM | 4.21e-08 M | 15300 nM
10 | CN(C)c1ccc2cc(C(=O)NS(=O)(=O)c3ccccc3Cl)oc2c1 [Example 22, N-(2-Chlorobenzene-1-sulfonyl)-6-(dimethylamino)-1-benzofuran-2-carboxamide] | 219 nM | 200 nM | 214 nM | 2.02e-07 M | > 20000 nM |  |  | 
11 | Cc1ccc(S(=O)(=O)NC(=O)c2cc3ccc(N(C)C)cc3o2)c(-c2ccccc2)c1 [Example 24, 6-(Dimethylamino)-N-(5-methyl[1,1′-biphenyl]-2-sulfonyl)-1-benzofuran-2-carboxamide] | 31 nM | 49 nM | 181 nM | 1.33e-07 M | > 20000 nM |  |  | 
12 | CCOc1cccc(-c2cccc(Cl)c2)c1S(=O)(=O)NC(=O)c1cc2ccc(N(C)C)cc2o1 [Example 25, N-(3′-Chloro-3-ethoxy[1,1′-biphenyl]-2-sulfonyl)-6-(dimethylamino)-1-benzofuran-2-carboxamide] | 31.1 nM | 50.6 nM | 139 nM | 1.5e-07 M | 18000 nM |  |  | 
13 | Cc1ccc(S(=O)(=O)NC(=O)c2cc3ccc(N(C)C)cc3o2)cc1 [Example 26, 6-(Dimethylamino)-N-(4-methylbenzene-1-sulfonyl)-1-benzofuran-2-carboxamide] | 406 nM | 778 nM | 899 nM | 3.89e-07 M | > 20000 nM |  |  | 
14 | CN(C)c1ccc2cc(C(=O)NS(=O)(=O)C3CCOCC3)oc2c1 [Example 28, 6-(Dimethylamino)-N-(oxane-4-sulfonyl)-1-benzofuran-2-carboxamide] | 5440 nM | 2680 nM | > 20000 nM | 4.73e-06 M | > 20000 nM |  |  | 
15 | CN(C)c1ccc2cc(C(=O)NS(=O)(=O)c3cc(C#N)ccn3)oc2c1 [Example 29, N-(4-Cyanopyridine-2-sulfonyl)-6-(dimethylamino)-1-benzofuran-2-carboxamide] | 6240 nM | 5920 nM | > 20000 nM | 1.88e-05 M | > 20000 nM |  |  | 
16 | Cc1cc(N(C)C)cc2oc(C(=O)NS(=O)(=O)c3ccccc3-c3ccccc3)cc12 [Example 35, N-([1,1′-biphenyl]-2-sulfonyl)-6-(dimethylamino)-4-methyl-1-benzofuran-2-carboxamide] | 452 nM | 654 nM | 14900 nM | 6.03e-06 M | > 20000 nM |  |  | 
17 | CN(C)c1ccc2cc(C(=O)NS(=O)(=O)c3ccccc3C(=O)O)oc2c1 [Example 36, 2-{[6-(Dimethylamino)-1-benzofuran-2-carbonyl]sulfamoyl}benzoic acid] | 227 nM | 169 nM | 4030 nM | 1.04e-05 M | > 20000 nM |  |  | 
18 | CCN(CC)c1ccc2cc(C(=O)NS(=O)(=O)c3ccccc3-c3ccccc3)oc2c1 [Example 38, N-([1,1′-Biphenyl]-2-sulfonyl)-6-(diethylamino)-1-benzofuran-2-carboxamide] | 975 nM | 1890 nM | 4990 nM | 1.45e-05 M | > 20000 nM |  |  | 
19 | CN(CC1CC1)c1ccc2cc(C(=O)NS(=O)(=O)c3ccccc3-c3ccccc3)oc2c1 [Example 40, N-([1,1′-Biphenyl]-2-sulfonyl)-6-[(cyclopropylmethyl)(methyl)amino]-1-benzofuran-2-carboxamide] | 1150 nM | 1420 nM | > 20000 nM | > 2e-05 M | > 20000 nM |  |  | 
20 | CCCCN(CCCC)c1ccc2cc(C(=O)NS(=O)(=O)c3ccccc3-c3ccccc3)oc2c1 [Example 41, N-([1,1′-Biphenyl]-2-sulfonyl)-6-(dibutylamino)-1-benzofuran-2-carboxamide] | 2310 nM | 2560 nM | 14900 nM | 8.3e-06 M | 18500 nM |  |  | 
21 | Nc1ccc2cc(C(=O)NS(=O)(=O)c3ccccc3-c3ccccc3)oc2c1 [Example 42, 6-Amino-N-([1,1′-biphenyl]-2-sulfonyl)-1-benzofuran-2-carboxamide] | 1070 nM | 3590 nM | > 20000 nM | > 2e-05 M | > 20000 nM |  |  | 
22 | CC(=O)Nc1ccc2cc(C(=O)NS(=O)(=O)c3ccccc3-c3ccccc3)oc2c1 [Example 43, 6-Acetamido-N-([1,1′-biphenyl]-2-sulfonyl)-1-benzofuran-2-carboxamide] | 5140 nM | 10300 nM | > 20000 nM | > 2e-05 M | > 20000 nM |  |  | 
23 | O=C(NS(=O)(=O)c1ccccc1-c1ccccc1)c1cc2ccc(N3CCCC3)cc2o1 [Example 45, N-([1,1′-Biphenyl]-2-sulfonyl)-6-(pyrrolidin-1-yl)-1-benzofuran-2-carboxamide] | 3600 nM | 1480 nM | 6450 nM | 1.19e-05 M | > 20000 nM |  |  | 
24 | O=C(NS(=O)(=O)c1ccccc1-c1ccccc1)c1cc2ccc(N3CCCCC3)cc2o1 [Example 47, N-([1,1′-Biphenyl]-2-sulfonyl)-6-(piperidin-1-yl)-1-benzofuran-2-carboxamide] | 7800 nM | 15900 nM | > 20000 nM | > 2e-05 M | > 20000 nM |  |  | 
